“And” between values parts separate entries of the source, which are not always exact repeats. Equal entries are not always repeated.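 Grown in 96-well plates, cells were treated for 48 hours with each compound at five concentrations. Insufficient inhibition: endpoint recorded as highest concentration tested. Abbreviation: GI50, concentration required for 50% inhibition of growth. The concentration for full growth arrest is given as TGI.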
How the values were obtained:
Assay in all cases: NCI tumour cell line growth inhibition, 48 h
SF-295 CNS = system: SF-295 CNS
HCT-15 colon = system: HCT-15 colon
NCI-H522 lung = system: NCI-H522 lung
SK-MEL-2 melanoma = system: SK-MEL-2 melanoma
SF-539 CNS = system: SF-539 CNS
EKVX NSCLC = system: EKVX NSCLC
U251 CNS = system: U251 CNS
SNB-75 CNS = system: SNB-75 CNS
RXF 393 renal = system: RXF 393 renal
OVCAR-3 ovarian = system: OVCAR-3 ovarian

Compound	GI50 (SF-295 CNS)	TGI (SF-295 CNS)	GI50 (HCT-15 colon)	TGI (HCT-15 colon)	GI50 (NCI-H522 lung)	TGI (NCI-H522 lung)	GI50 (SK-MEL-2 melanoma)	TGI (SK-MEL-2 melanoma)	GI50 (SF-539 CNS)	TGI (SF-539 CNS)	GI50 (EKVX NSCLC)	TGI (EKVX NSCLC)	GI50 (U251 CNS)	TGI (U251 CNS)	GI50 (SNB-75 CNS)	TGI (SNB-75 CNS)	GI50 (RXF 393 renal)	TGI (RXF 393 renal)	GI50 (OVCAR-3 ovarian)	TGI (OVCAR-3 ovarian)
COC(=O)[C@]12CC[C@@H](C)[C@H](C)[C@@H]1C1=CC[C@@H]3[C@@]4(C)C[C@@H](OC(=O)c5ccco5)[C@H](O)[C@@](C)(CO)[C@@H]4[C@H](O)C[C@@]3(C)[C@]1(C)CC2	1.84 µM	3.87 µM	1.84 µM	3.89 µM	1.82 µM	3.96 µM	1.97 µM	4.31 µM	2.28 µM	5.17 µM	2.78 µM	8.67 µM	1.97 µM	4.21 µM	2.38 µM	11.7 µM	1.66 µM	3.34 µM	2.19 µM	4.73 µM
C=CCN1C(=O)/C(=c2\sc3n(c2=O)C2C(NN=3)N(CC)C(=O)N2CC)c2ccccc21 (centres undefined)	0.455 µM	> 33.7 µM	0.451 µM	> 100 µM	0.379 µM		2.17 µM	> 38.7 µM	0.346 µM	2.87 µM	1.39 µM	> 100 µM	0.726 µM	> 33.5 µM	0.254 µM	2.98 µM	0.328 µM	1.94 µM	0.377 µM	2.35 µM
CSC1=Nc2c(c(C)c(-c3ccccc3)n2COC(CO)CO)C2=NC(=O)C(C)N12 (centres undefined)	> 100 µM	> 100 µM	> 100 µM	> 100 µM	> 100 µM	> 100 µM	> 100 µM	> 100 µM	> 100 µM	> 100 µM	> 100 µM	> 100 µM	> 100 µM	> 100 µM	48.5 µM	> 100 µM	> 100 µM	> 100 µM	> 100 µM	> 100 µM
CCOc1ccc(Cc2nccc3cc(OCC)c(OCC)cc23)cc1OCC	0.688 µM	15.8 µM	10.2 µM	29.8 µM	2.09 µM	15 µM	11.7 µM	26.1 µM	5.87 µM	20.7 µM	3.64 µM	27.1 µM	7.73 µM	21.9 µM	13.4 µM	41.9 µM	10.4 µM	23.1 µM	10.5 µM	23.6 µM
CCCNc1nc(N(C)O)nc(N(C)O)n1	2.36 µM	> 56.2 µM	0.504 µM	> 100 µM	1.11 µM	7.3 µM	2.59 µM	7.76 µM	2.51 µM	> 54.4 µM	2.04 µM	> 100 µM	0.955 µM	> 100 µM	16.4 µM	> 75.3 µM	2.96 µM	> 62 µM	0.783 µM	9.23 µM
O=C(CCCn1c2c(sc3ncccc32)c(=O)n2nnc(-c3ccccc3)c12)NCCc1cnc[nH]1	1.75 µM	16.3 µM	5.8 µM	> 100 µM	2.95 µM	23 µM	17.6 µM	38.9 µM	0.316 µM	14.9 µM	15.2 µM	44.5 µM	1.28 µM	14.9 µM	15.1 µM	28.9 µM	14.8 µM	34 µM	11 µM	23.6 µM
COc1ccc(/C=C/C(=O)c2sc(N)nc2C)cc1		> 100 µM		> 100 µM		> 100 µM		> 100 µM		> 100 µM		> 100 µM		> 100 µM		> 100 µM		> 100 µM		> 100 µM
COC(=O)CCC(NC(=S)N/N=C(\C)c1ccccn1)C(=O)OC (centres undefined)		> 100 µM		> 100 µM		> 100 µM		> 100 µM		> 100 µM		> 100 µM		> 100 µM		> 100 µM		> 100 µM		> 100 µM
Cc1cc(C)nc(NS(=O)(=O)c2ccc(Nc3c4ccccc4nc4c(C(=O)NCCN(C)C)ccc(Cl)c34)cc2)n1		5.91 µM		10.1 µM		3.32 µM		12.1 µM		11.5 µM		15.5 µM		10.4 µM		11 µM		6.31 µM		23 µM
Nc1nnc2nc(CC(=O)/C=C/c3ccccc3)c(=O)[nH]n12		> 100 µM		> 100 µM		> 100 µM		> 100 µM		> 100 µM		> 100 µM		> 100 µM		> 100 µM		> 100 µM		> 100 µM
O=C(c1cc(=O)c2ccc(O)cc2o1)c1ccc(Cl)cc1Cl		> 65.9 µM		> 100 µM		> 59 µM		> 100 µM		> 25.4 µM		99.3 µM		> 100 µM		> 100 µM		98.4 µM		> 58.9 µM
COC1=C(OC)C(=O)C(/C=C(\C)C(=O)O)=C(C)C1=O	> 100 µM	> 100 µM	> 100 µM	> 100 µM	> 100 µM	> 100 µM	> 100 µM	> 100 µM	> 100 µM	> 100 µM	> 100 µM	> 100 µM	> 100 µM	> 100 µM	49.1 µM	> 100 µM	> 100 µM	> 100 µM	> 100 µM	> 100 µM
C=CCC(C(=O)OC)C1(C(=O)OC)c2[nH]c3ccccc3c2CCN1Cc1ccccc1 (centres undefined)		> 100 µM		> 100 µM		> 100 µM		> 100 µM		> 100 µM		> 100 µM		> 100 µM		> 100 µM		> 100 µM		> 100 µM
Cc1ccc(SSCCCS(=O)O)cc1		> 100 µM		> 100 µM		37.5 µM		> 100 µM		40.6 µM		88.5 µM		41.2 µM		79.5 µM		72.3 µM		> 100 µM
CC1C2Cc3ccc(O)cc3C1(C)CCN2C (centres undefined)		> 100 µM		> 100 µM		> 100 µM		> 100 µM		> 100 µM		> 100 µM		> 100 µM		> 100 µM		> 100 µM		> 100 µM
Oc1nc(NCCc2ccccc2)sc1/C=C1\C=Nc2ncccc21	3.32 µM and 3.14 µM	13.2 µM and 23.6 µM	2.63 µM and 3.15 µM	13.9 µM and 33.5 µM	1.43 µM and 1.39 µM	12.1 µM and 11.6 µM	2.4 µM and 2.94 µM	6.65 µM and 9.08 µM	1.32 µM and 1.47 µM	3.82 µM and 3.65 µM	3.18 µM and 3.52 µM	29.6 µM and 26.9 µM	2.29 µM and 3.26 µM	7.89 µM and 11.5 µM	1.81 µM and 1.8 µM	4.11 µM and 4.29 µM	1.91 µM and 2.53 µM	4.08 µM and 5.72 µM	2.16 µM and 2.06 µM	9.39 µM and 7.33 µM
Nc1nc(N)c2cc(CNc3ccc(Cl)c(Cl)c3)ccc2n1	0.419 µM	1.69 µM	0.365 µM	1.72 µM	0.567 µM	2.01 µM	1.52 µM	3.01 µM	0.825 µM	2.13 µM	0.742 µM	2.18 µM	0.433 µM	1.66 µM	1.14 µM	2.36 µM	0.748 µM	2.18 µM	1.1 µM	2.29 µM
O=C(Oc1cccnc1)c1ccccc1Nc1ccnc(C(F)(F)F)c1	0.257 µM	0.707 µM	0.121 µM	> 100 µM	0.402 µM	> 100 µM	20.2 µM	> 100 µM	0.0428 µM	> 100 µM	6.15 µM	46.4 µM	0.33 µM	> 96.2 µM	> 63.4 µM	> 100 µM	0.473 µM	13.5 µM	0.141 µM	0.453 µM
CCCCCCN(CCCCCC)CCCNc1nccc2ccccc12	0.951 µM	2.24 µM	1.41 µM	3.21 µM	1.44 µM	3.23 µM	1.8 µM	3.41 µM	1.94 µM	3.59 µM	2.65 µM	11.8 µM	1.54 µM	2.96 µM	1.65 µM	4.22 µM	1.82 µM	5.3 µM	1.73 µM	3.55 µM
CC(C)(O)[C@@H]1CCC(C)([C@H]2[C@@H](O)CC3(C)C4CC(OC5OC(CO)C(O)C(O)C5O)C5C(C)(C)[C@@H](OC6OCC(O)C(O)C6O)CC[C@@]56C[C@@]46CC[C@]23C)O1 (some centres undefined)		> 100 µM		> 100 µM		> 100 µM		> 100 µM		> 100 µM		> 100 µM		> 100 µM		> 100 µM		> 100 µM		> 100 µM
CCOc1ccccc1NC(=O)C(=O)CC(=O)C1=C(C)Nc2ccccc2S1		> 100 µM		> 100 µM		> 100 µM		> 100 µM		> 100 µM		> 100 µM		> 100 µM		> 100 µM		> 100 µM		> 100 µM

Source: PubChem BioAssay (NCI)
